Key:
[1] = system: genes linked to neuroinflammation and glial reactivity; experiment: Microfluidic RT-qPCR panel of neuroinflammation-related genes in hippocampi of hTauP301S mice; format: in vivo; settings: 10-month-old hTauP301S mice, six weeks oral dosing, vs vehicle
Method: Subset of neuroinflammatory markers measured by RT-qPCR in hippocampi of 10-month-old male nontransgenic (NTG) or hTauP301S mice after 6 weeks of oral dosing with 5 mg/kg/day S3QEL2, 10 mg/kg/day S1QEL1.1, or vehicle. […] Average fold-change vs NTG. n=3-5 mice per group.
Next, studies were conducted to test if S3QEL2 or SIQEL1.1 altered the expression of genes involved in neuroinflammation and glial reactivity in hTauP301S mice.

ASC/Pycard; CD11b = experiment: Immunolabeling of ASC/Pycard and CD11b in hippocampal tissue of hTauP301S mice; format: in vivo; settings: 6 weeks oral dosing
Description: Levels of immunolabeling for the inflammasome protein ASC/Pycard (FIG. 6A) and the microglial marker CD11b (FIG. 6B) in hippocampal tissue from nontransgenic (NTG) and hTauP301S mice after 6 weeks of oral dosing with S3QEL2 or vehicle. n=3-6 mice per group. *p<0.05, **p<0.01, ***p<0.001, ANOVA with Dunnett's test.
As assessed by immunolabeling, hTauP301S mice treated with S3QEL2 also had reduced levels of glial fibrillary acidic protein (GFAP)-positive astrogliosis and phosphorylated tau (FIG. 7). Western blotting confirmed reduced levels of phosphorylated but not total tau in these mice (FIG. 5).

primary astrocytes = experiment: Markers of reactivity in primary astrocytes treated with oligomeric Aβ (qRT-PCR); format: cell-based, mice; settings: oligomeric Aβ 3 μM, S3QEL2 20 μM, 24 h
Method: (FIGS. 11A-11B) Astrocytes isolated from P2-P3 mice were treated with oligomeric Aβ (3 μM) and S3QEL2 (S3, 20 μM) or vehicle (V) for 24 h and analyzed by qRT-PCR (FIG. 11A) or Western blotting (B) and normalized to vehicle controls. (FIG. 11B) Phospho-STAT3 levels were normalized to total STAT3 per sample. n=3 wells per condition; *p<0.05, **p<0.01, ***p<0.001, ANOVA with Dunnett's test.
To further assess if S3QELs alter glial functions, the effects of S3QEL2 on isolated astrocytes and microglia was tested. […] These markers included genes associated with neurodegeneration and aging, such as complement component C3, which promotes synapse elimination in disease, and phosphorylated STAT3, which is considered a central regulator of astrocytic reactivity.

lipocalin-2 = experiment: Lipocalin-2 protein released by primary astrocytes (ELISA); format: cell-based, mice; settings: A1 cocktail, 60 μM, approximately 24 h
Method: Astrocytes isolated from P2-P3 mice were treated with A1 cocktail consisting of 30 ng/mL TNF-α, 3 ng/mL IL-1α, and 400 ng/mL Clq, and S3QEL2 (S3, 60 μM) or vehicle (Con) for approximately 24 h. Levels of astrocytic lipocalin-2 protein released into the culture media were analyzed by ELISA. n=4 wells per condition. **p<0.01, ***p<0.001, one-way ANOVA with Dunnett's multiple comparisons test.

A-172 glioblastoma cells [2] = experiment: Glioblastoma cell proliferation, CellTiter-Glo luciferase assay, A-172; format: cell-based, human; settings: 0-50 μM, 72 and 96 h
Method: Relative cell density was measured using the CellTiter-Glo luciferase assay. n=3 wells per condition. *p<0.05, **p<0.01, ***p<0.001 vs. 0 μM, one-way ANOVA with Dunnett's multiple comparisons test.
The effect of S3QELs on proliferation of glial tumor cells that have different oncogenic mutations was assessed. In particular, proliferation rates were assessed in three different human immortalized glioblastoma cells lines (A-172, T98G, and U-87 MG). A-172 and U-87 lines have mutations in PTEN, a phosphatase that indirectly regulates PI3K activities, whereas T98G cell line has a mutation in p53, a well-known tumor suppressor gene. STAT3 can affect PI3K signaling and p53 transcription and could thereby promote glioblastoma cell proliferation. Whether S3QELs reduce glioblastoma cell proliferation and aberrant intracellular signaling was tested.
(§1) Briefly, two complementary methods were used to assess cell proliferation, including the CellTiter-Glo assay and DAPI staining of cell nuclei. The effects of S3QEL2 treatment on A-172, T98G, and U-87 MG cells were measured at different drug concentrations (0, 6, 20, 30, 40, or 50 μM) and time-points after treatment (72 or 96 hours). S3QEL2 inhibits proliferation of A-172 and T98G glioblastoma cells in a highly dose-dependent manner and these effects are similar at different time-points (FIG. 15A-B).

A-172 glioblastoma cells [3] = experiment: Glioblastoma cell proliferation, DAPI staining of cell nuclei, A-172; format: cell-based, human; settings: 72 h
Method: (§2) Cell density was measured using DAPI staining of cell nuclei and quantification of fluorescence intensities. n=3 wells per condition. […] STAT3 levels were measured by Western blotting. STAT3 levels were normalized to γ-tubulin levels within each cell lysate and expressed as fold change relative to U-87MG cells. n=4 wells per condition. **p<0.01, ***p<0.001 vs. 0 μM or U-87MG, one-way ANOVA with Dunnett's multiple comparisons test.
as §1

[4] = system: U-87 MG glioblastoma cells; experiment: Glioblastoma cell proliferation, DAPI staining of cell nuclei, U-87 MG; format: cell-based, human; settings: 72 h
Method: as §2, §1

CCCN(CCC)c1ncnc2c1cnn2-c1ccc(C)c(C)c1 [S3QEL2]
Expression of genes linked to neuroinflammation and glial reactivity [1]: reduced expression of diverse genes linked to neuroinflammation and glial reactivity
ASC/Pycard protein immunolabeling (ASC/Pycard; CD11b): reduced
CD11b protein immunolabeling (ASC/Pycard; CD11b): reduced
Markers of reactivity (genes incl. complement component C3) (primary astrocytes): reduced markers of reactivity
Release of lipocalin-2 protein into culture media (lipocalin-2): inhibited the release of lipocalin-2
Cell proliferation (relative cell density, CellTiter-Glo) (A-172 glioblastoma cells [2]): dose-dependently inhibited cell proliferation
Cell proliferation (cell density, DAPI staining) (A-172 glioblastoma cells [3]): reduces proliferation
Cell proliferation (cell density, DAPI staining) [4]: but not U-87 MG cells

Source: patent publication US20240058344A1, “METHODS OF TREATING NEURODEGENERATIVE DISORDERS AND STAT3-LINKED CANCERS USING SUPPRESSORS OF ELECTRON LEAK” (Cornell University, priority 2020, published 2024)
